Our source for the EC50 values is patent publication US7323447B2, “Hepatitis C virus inhibitors” (Bristol-Myers Squibb Company, priority 2005, dated 2008).

Where two headings read alike, the source gives them in different places.

By EC50 is commonly meant the midpoint of the concentration-response curve.

In this assay the test system is HCV replicon in HUH-7 cells. The assay is described as follows: HCV replicon FRET assay. The settings on record: Hepatitis C virus. It counts as cell-based, Hepatitis C virus (strain 1b). The gist of the method:
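HUH-7 cells carrying a genotype 1b subgenomic neo replicon (NS3–NS5B) treated 4 days at 37 °C with compound in 0.5% DMSO final. CC50 from alamarBlue fluorescence after 4 h; cells then lysed with FRET protease substrate at 10 μM final and read kinetically at 340/490 nm to give EC50.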
For orientation: A replicon is a self-replicating genome or part of one, used to study replication in cells.

Turning to `C=C[C@@H]1C[C@]1(NC(=O)[C@@H]1C[C@@H](OC(=O)N2Cc3cccc(F)c3C2)CN1C(=O)[C@@H](OC(=O)NC(C)(C)C)C(C)(C)C)C(=O)NS(=O)(=O)C1CC1` [Example 56Compound 56], the EC50 by setting is: (Huh-7, 96 h, replicon FRET assay, HUH-7, 4 days, read-out: EC50 value in the replicon FRET assay) 742 nM; (Huh-7, read-out: EC50 Range, HCV replicon cell assay, Table 1) 500 to 5000 nM.
